Assay results as given in US7070796B1 (Debiopharm S.A., priority 1999, dated 2006).

How the values were obtained:
[1] = Solvent optimization above 10 mg/ml, visual observation, with temperature variations; type: physicochemical; conditions: for visual aspect of mixture: aqueous, ad 25 ml
Description: First it has been carried to 60° C. and maintained at this temperature under agitation during one hour. […] It was then submitted to three successive freezing with, in the interval, return to the room temperature. This solution has then staid seven days in a fridge.

Staphylococcus aureus = test: Efficacy of the antimicrobial conservation (European Pharmacopea 5.1.3); type: cell-based; conditions: oxaliplatinum in solution, test of artificial contamination recommended by the Pharmacopea
Description: Under these conditions, the obtained results have shown a definite reduction of the staphylococcus aureus population with a Δlog of 5,99 after 24 hours.

[2] = aqueous medium
Description: Some of these tests will appear in the examples as comparatives.

Compound	visual aspect of mixture ([1]; 400 mg oxaliplatinum and 12,5 g maltitol)	visual aspect of solution ([1]; 337,5 mg oxaliplatinum and 5 g maltitol ad 25 ml, 60° C. under agitation during one hour)	crystal formation ([1]; 337,5 mg oxaliplatinum and 5 g maltitol ad 25 ml, three successive freezing, then seven days in a fridge, return to room temperature)	visual aspect of mixture ([1]; 337,5 mg oxaliplatinum and 5 g maltitol)	dissolution in words ([1]; 379,7 mg oxaliplatinum in 25 ml glycerol to 85%)	antimicrobial efficacy in words (Staphylococcus aureus)	effect of the substance, mixed with or solubilised in water, on oxaliplatinum solubility [2]
N[C@@H]1CCCC[C@H]1N.O=C([O-])C(=O)[O-].[Pt+2] [oxaliplatinum]	residues appear	clear and colorless	no crystal has been observed	clear	partly dissolve	antimicrobial efficacy	
Tween 20							ineffective
